# From US6875757B2, “LPA receptor agonists and antagonists and methods of use” (University of Tennessee Research Foundation, priority 2000, dated 2005)
# Structures can show the parent of a compound that is named as a salt. Where two headings read alike, the source gives them in different places.
# How the values were obtained:
# PSP24 PLGFR = PSP24 PLGFR (Xenopus laevis, UniProt P79945); assay: Xenopus oocyte assay: LPA-induced oscillatory chloride currents (two-electrode voltage clamp); format: cell-based; settings: for threshold to elicit a response alone: compound alone, agonist response; for inhibition of LPA-induced chloride currents: Xenopus oocytes, extracellular application; for reversibility of inhibition of LPA-induced chloride currents: after washing the oocyte
# Protocol: Xenopus oocytes which endogenously express PSP24 PLGFR were used to screen the newly designed and synthesized compounds for their LPA inhibitory activity.
# (§1) Oocytes were obtained from xylazine-anesthetized adult Xenopus laevis frogs (Carolina Scientific, Burlington, N.C.) under aseptic conditions and prepared for experiment. […] Oocytes were kept in Barth's solution in an incubator between 17-20° C. and were used for 2-7 days after isolation.
# (§2) Electrophysiological recordings were carried out using a standard two-electrode voltage-clamp amplifier holding the membrane potential at −60 mV (GeneClamp 500, Axon Instruments, Calif.). […] Membrane currents were recorded with a NIC-310 digital oscilloscope (Nicolet, Madison, Wis.). Applications were made at intervals of 15 mins (minimum) to allow for the appropriate washout and recovery from desensitization.
# as §1
# as §2, with “CA).” for “Calif.).”
# human Edg-2 = target: T1, human Edg-2 (Homo sapiens, UniProt Q92633); assay: Ca2+ responses (Fura-2) in RH7777 cells expressing Edg-2; format: cell-based
# T1 construct: expressed in transfected cells
# Protocol: (§3) RH7777 cells were transfected with the cDNA constructs encoding human Edg-2, Edg-4, or Edg-7 and then were subcloned into the pCDNA3 expression vector using the Cytofectene transfection reagent according to the manufacturers' protocol. Transfected cells were selected in DMEM containing 10% FBS and 1 mg/ml geneticin. Resistant cells were collected and subcloned by limiting dilution. The resulting clones were then screened using functional assays and RT-PCR analysis. Data are representative of three individual clones.
# [1] = tested on: PC-3 prostate cancer cell line; assay: Cytotoxicity / growth inhibition (SRB), PC-3; format: cell-based; settings: 96 hours drug exposure, read-out: IC50 ± SEM, PC-3
# Protocol: (§4) Cells were removed from stock flasks using trypsin, centrifuged, resuspended in fresh media, and plated at a density of approximately 2,000 cells/well in 96-well culture plates. Final drug concentrations ranged from 0.05 to either 10 or 50 μM. Control experiments with no drug added (negative control) and 5-fluorouracil added (positive control) were performed in parallel. Media was removed and replaced at 48 hours to minimize the effects of drug degradation during the course of the experiment. After 96 hours drug exposure, cells were fixed by the addition of cold 50% trichloroacetic acid (TCA) and incubation at 4° C. for 1 hour. Fixed cells were stained with sulforhodamine B (SRB), and cell number was determined by comparison of absorbance at 540 nm, as compared to a standard curve of cell number versus absorbance. Experiments were performed in duplicate.
# [2] = tested on: LNCaP prostate cancer cell line; assay: Cytotoxicity / growth inhibition (SRB), LNCaP; format: cell-based; settings: 96 hours drug exposure, read-out: IC50 ± SEM, LNCaP
# Protocol: as §4
# [3] = tested on: DU-145 prostate cancer cell line; assay: Cytotoxicity / growth inhibition (SRB), DU145; format: cell-based; settings: read-out: IC50 ± SEM, DU145
# Protocol: as §4
# human Edg-7 = target: T2, human Edg-7 (Homo sapiens, UniProt Q9UBY5); assay: Ca2+ responses (Fura-2) in RH7777 cells expressing Edg-7; format: cell-based; settings: for effect on LPA-elicited Ca2+ responses: 250 nM LPA 18:1 mixed with 500 nM lipid
# T2 construct: Flag; expressed in transfected cells
# T2 sequence (Q9UBY5 1-353): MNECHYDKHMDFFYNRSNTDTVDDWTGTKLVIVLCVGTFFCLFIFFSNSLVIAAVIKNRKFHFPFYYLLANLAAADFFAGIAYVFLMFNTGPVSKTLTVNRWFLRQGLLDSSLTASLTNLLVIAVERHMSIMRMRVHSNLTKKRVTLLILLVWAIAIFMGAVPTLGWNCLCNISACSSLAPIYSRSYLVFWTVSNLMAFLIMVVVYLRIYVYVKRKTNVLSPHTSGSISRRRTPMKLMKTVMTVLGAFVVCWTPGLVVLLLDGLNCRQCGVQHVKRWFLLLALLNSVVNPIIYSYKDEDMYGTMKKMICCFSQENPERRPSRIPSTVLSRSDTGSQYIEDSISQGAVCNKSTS
# Protocol: as §3
# human Edg-4 = target: T3, human Edg-4 (Homo sapiens, UniProt Q9HBW0); assay: Ca2+ responses (Fura-2) in RH7777 cells expressing Edg-4 (stable or transient); format: cell-based
# T3 construct: expressed in transfected cells
# Source text: RH7777 cells, stably expressing human Edg-4, were kindly provided by Dr. Kevin Lynch (University of Virginia, Charlottesville, Va.). Flag-tagged cDNA's encoding human Edg-4 and -7 inserted into the pCDNA3 expression plasmid (Invitrogen, Carlsbad, Calif.), were a generous gift from Dr. Junken Aoki (University of Tokyo, Tokyo, Japan). RH7777 and NIH3T3 cells were obtained from the American Type Culture Collection (Manassas, Va.). HEY cells were provided by Dr. Lisa Jennings (University of Tennessee, Memphis). All cell lines were maintained in Dulbecco's Modified Eagle's Medium (DMEM) containing 10% FBS and 2 mM glutamine. Oocytes were obtained from adult Xenopus laevis frogs as previously described (Tigyi et al., 1999).
# as §3
# RH7777 cells were plated on polylysine-coated glass coverslips (Bellco, Vineland, N.J.) one day prior to transfection. The following day, cells were transfected overnight (16-18 hr) with 1 μg of plasmid DNA mixed with 6 μl of Cytofectene. The cells were then rinsed twice with DMEM and cultured in DMEM containing 10% FBS. The next day, the cells were rinsed with DMEM and serum was withdrawn for a minimum of 2 hr prior to monitoring intracellular Ca^2+.
# HEY ovarian cancer cells = assay: Ca2+ responses in HEY ovarian cancer cells; format: cell-based; settings: 100 nM LPA 18:1 mixed with 1 μM lipid
# Source text: Likewise, PA 8:0 inhibited the Ca^2+ response to 6% of control, whereas PA 18:1 had no effect. HEY express mRNA transcripts for Edg-1, -2, -5, -7 receptors (FIG. 34C).
# [4] = Homo sapiens, DU-145, 96 hours drug exposure
# [5] = alone, concentrations as high as 10 μM
# [6] = mixture of LPA 8:0 and LPA 18:1
# [7] = 250 nM LPA 18:1 mixed with 10 μM lipid
# [8] = LPA 18:1 near the EC50 combined with compound 108
# PSP24 PLGFR, sequence (P79945 whole entry): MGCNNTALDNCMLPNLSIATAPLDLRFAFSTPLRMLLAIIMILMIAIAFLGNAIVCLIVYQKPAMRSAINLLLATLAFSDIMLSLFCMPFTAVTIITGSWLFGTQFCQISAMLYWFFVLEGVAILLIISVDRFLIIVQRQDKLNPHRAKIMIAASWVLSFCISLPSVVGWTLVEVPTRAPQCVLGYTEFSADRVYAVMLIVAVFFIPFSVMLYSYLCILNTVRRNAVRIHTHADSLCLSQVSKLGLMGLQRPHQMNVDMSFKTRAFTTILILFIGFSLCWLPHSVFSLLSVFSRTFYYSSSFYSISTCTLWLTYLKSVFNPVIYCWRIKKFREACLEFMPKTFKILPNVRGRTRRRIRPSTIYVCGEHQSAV
# T3 sequence (Q9HBW0 whole entry): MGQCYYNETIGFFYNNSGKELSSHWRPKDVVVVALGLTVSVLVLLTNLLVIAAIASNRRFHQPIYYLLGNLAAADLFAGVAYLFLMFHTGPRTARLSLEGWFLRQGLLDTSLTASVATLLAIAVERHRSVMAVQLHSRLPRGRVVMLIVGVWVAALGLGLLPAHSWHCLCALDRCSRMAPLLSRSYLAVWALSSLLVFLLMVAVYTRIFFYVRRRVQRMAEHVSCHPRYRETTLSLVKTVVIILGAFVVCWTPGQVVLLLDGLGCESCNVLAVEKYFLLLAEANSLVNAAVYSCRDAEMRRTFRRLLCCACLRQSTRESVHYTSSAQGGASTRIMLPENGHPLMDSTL
# T1 sequence (Q92633 whole entry): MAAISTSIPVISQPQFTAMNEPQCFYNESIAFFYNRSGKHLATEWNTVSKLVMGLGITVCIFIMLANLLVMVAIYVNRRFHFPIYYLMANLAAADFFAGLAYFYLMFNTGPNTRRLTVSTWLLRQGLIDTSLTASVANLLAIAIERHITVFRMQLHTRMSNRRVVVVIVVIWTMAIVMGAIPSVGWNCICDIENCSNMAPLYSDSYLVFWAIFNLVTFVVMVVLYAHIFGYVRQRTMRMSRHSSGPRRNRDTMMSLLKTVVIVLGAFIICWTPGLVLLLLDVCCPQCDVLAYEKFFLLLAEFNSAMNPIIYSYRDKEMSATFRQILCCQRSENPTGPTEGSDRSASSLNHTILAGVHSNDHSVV
molecule,measurement,setting,value
lysophosphatidic acid [LPA (18:1)],EC50,"PSP24 PLGFR; LPA alone, FIG. 37, read-out: EC50 of LPA alone (positive control solution)",0.025 µM
same,EC50,"human Edg-2; stable Edg-2 expressing cells, read-out: EC50, Ca2+ transients",0.378 ± 0.053 µM
same,IC50,[1],28.5 ± 6.3 µM
"CCCCCCCCCCCCOCC(COP(=O)(O)O)OP(=O)(O)O (centres unmarked) [Compound 67, 1,2-(3-Dodecyloxypropane)-bis(dihydrogen phosphate)]",threshold to elicit a response alone,PSP24 PLGFR,~1000 nM
same,IC50,[2],25.2 ± 12.3 µM
"O=c1[nH]cc(F)c(=O)[nH]1 [Fluorouracil, 5-fluorouracil]",IC50,[3]; [4],6.8 ± 3.3 µM
same,IC50,[1],10.2 ± 4.1 µM
same,IC50,"[2]; Homo sapiens, LNCaP",2.8 ± 1.6 µM
"CCCCCCCCCCCCCCCCCCCCCC(=O)OCC(COP(=O)(O)O)OP(=O)(O)O (centres unmarked) [Compound 92, 1,2-(3-Docosanoyloxypropane)-bis(dihydrogen phosphate)]",inhibition of LPA-induced chloride currents,PSP24 PLGFR,inhibitors of LPA-induced chloride current
same,reversibility of inhibition of LPA-induced chloride currents,PSP24 PLGFR,reversible
"CCCCCCCCCCCCC/C=C/[C@@H](O)[C@@H](N)COP(=O)(O)O [SPP (13:0), sphingosine-1-phosphate]",IC50,[3]; [4],> 10 µM
same,IC50,[1],> 50 µM
"CCCCCCCCCCCCCCNC(=O)C(CO)NC(=O)OC(C)(C)C (centres unmarked) [Compound 27, tert-Butyl N-[1-(hydroxymethyl)-2-oxo-2-(tetradecylamino)ethyl]carbamate]",IC50,[3]; [4],19.7 ± 6 µM
same,IC50,[1],> 50 µM
same,melting point,,59 to 62 °C
same,IC50,"[2]; Homo sapiens, LNCaP",10.9 ± 2.7 µM
lysophosphatidic acid [LPA 8:0],effect on LPA-elicited Ca2+ responses,human Edg-7,had no effect
same,Ca2+ response elicited alone,human Edg-7; [5],unable to elicit Ca^2+ responses
same,effect of mixture with LPA 18:1 on Ca2+ responses,human Edg-7; [6],not effected
same,Ca2+ response elicited alone,human Edg-2; [5],unable to elicit Ca^2+ responses
same,effect of mixture with LPA 18:1 on Ca2+ responses,human Edg-2; [6],not effected
same,Ca2+ response elicited alone,human Edg-4; [5],unable to elicit Ca^2+ responses
same,effect of mixture with LPA 18:1 on Ca2+ responses,"human Edg-4; mixture of LPA 8:0 and LPA 18:1, stable cells",not effected
"CCCCCCCCCCCCCCCCCCNC(=O)C(N)COP(=O)(O)O (centres unmarked) [Compound 57, 2-Amino-3-(octadecylamino)-3-oxopropyl dihydrogen phosphate]",inhibition of LPA-induced chloride currents,PSP24 PLGFR,inhibitors of LPA-induced chloride current
same,reversibility of inhibition of LPA-induced chloride currents,PSP24 PLGFR,reversible
diacyl glycerol [DAG 8:0],effect on LPA-elicited Ca2+ responses,human Edg-7,significantly increased the Ca^2+ responses
same,"Ca2+ response, % of control",human Edg-2; [7],64 % of control
"CCCCCCCCCCCCCCNC(=O)C(N)CO.O=C(O)C(F)(F)F (centres unmarked) [Compound 36, N-1-tetradecyl-2-amino-3-hydroxypropanamide trifluoroacetate]",inhibition of LPA-induced chloride currents,PSP24 PLGFR,best inhibitor among the non-phosphorylated derivatives
same,melting point,,168 to 171 °C
CCCCCCCCCCCCCCCCCCNC(=O)C(N)CO.O=C(O)C(F)(F)F (centres unmarked),melting point,,170 to 172 °C
diacyl glycerol [DAG 18:1],effect on LPA-elicited Ca2+ responses,human Edg-7,did not have an inhibitory effect
same,inhibitory effect on LPA-elicited Ca2+ response,human Edg-2; [7],no longer had an inhibitory effect
"CCCCCCCCCCCCCCCCCC(=O)OCC(COP(=O)(O)O)OP(=O)(O)O (centres unmarked) [Compound 89, 1,2-(3-Octadecanoyloxypropane)-bis(dihydrogen phosphate)]",inhibition of LPA-induced response,"PSP24 PLGFR; against 2 nM LPA, compound concentration not given",59%
Phosphatidic acid [PA 18:1],effect on LPA-elicited Ca2+ responses,human Edg-7,no longer inhibitors of Edg-7
same,effect on LPA-elicited Ca2+ response,HEY ovarian cancer cells,had no effect
same,decrease of the Ca2+ response,human Edg-2; [7],18%
same,"Ca2+ responses, % of control","human Edg-4; stable Edg-4, 500 nM LPA 18:1 mixed with 5 μM lipid",137 % of control
"CCCCCCCCCCCCCCNC(=O)C(COP(=O)(OCc1ccccc1)OCc1ccccc1)NC(=O)OC(C)(C)C (centres unmarked) [Compound 51, tert-Butyl N-[1-{([di(benzyloxy)phosphoryl]oxy)methyl}-2-oxo-2-(tetradecylamino)ethyl]carbamate]",IC50,[3]; [4],8.1 ± 1.3 µM
same,IC50,[1],25.4 ± 3.6 µM
same,melting point,,33 to 35 °C
same,IC50,"[2]; Homo sapiens, LNCaP",19.9 ± 6.4 µM
"CCCCCCCCCCCCCCCCOCC(COP(=O)(O)O)OP(=O)(O)O (centres unmarked) [Compound 68, 1,2-(3-Hexadecyloxypropane)-bis(dihydrogen phosphate)]",threshold to elicit a response alone,PSP24 PLGFR,~10 nM
same,IC50,[2],29.3 ± 21.7 µM
"CCCCCCCCCCCCOP(=O)(O)O [Compound 108, Phosphoric Acid Monododecyl Ester]","Ca2+ responses, % of control",human Edg-7; [8],~56 % of control
same,"Ca2+ responses, % of control",human Edg-2; [8],about 63 % of control
same,"Ca2+ responses, % of control",human Edg-4; [8],about 148 % of control
"CCCCCCCCCCCCCC(=O)OCC(COP(=O)(O)O)OP(=O)(O)O (centres unmarked) [Compound 85, 1,2-(3-Tetradecanoyloxypropane)-bis(dihydrogen phosphate)]",threshold to elicit a response alone,PSP24 PLGFR,~100 nM
same,IC50,[2],11.6 ± 10.3 µM
"CCCCCCCCCCCCCCNC(=O)C(N)COP(=O)(O)O (centres unmarked) [Compound 56, 2-Amino-3-oxo-3-(tetradecylamino)propyl dihydrogen phosphate]",inhibition of LPA-induced chloride currents,PSP24 PLGFR,inhibitors of LPA-induced chloride current
same,reversibility of inhibition of LPA-induced chloride currents,PSP24 PLGFR,reversible
"CCCCCCCCCCCCCCCCCCCC(=O)OCC(COP(=O)(O)O)OP(=O)(O)O (centres unmarked) [Compound 91, 1,2-(3-Icosanoyloxypropane)-bis(dihydrogen phosphate)]",IC50,[3]; 96 hours drug exposure,42.2 ± 1.9 µM
"CCCCCCCCCCCCCCOc1ccc(NC(=O)C(N)CO)cc1 (centres unmarked) [Compound 38, N-1-[4-(tetradecyloxy)phenyl]-2-amino-3-hydroxypropanamide trifluoroacetate]",IC50,[3]; 96 hours drug exposure,38.9 ± 8.9 µM
"CCCCCCCCCCCCCCCCCCC(=O)OCC(COP(=O)(O)O)OP(=O)(O)O (centres unmarked) [Compound 90, 1,2-(3-Nonadecanoyloxypropane)-bis(dihydrogen phosphate)]",IC50,[3]; 96 hours drug exposure,> 50 µM
